The subject of experiment [1] is human pre-adipocyte fibroblasts. The experiment is described as follows: Adipogenesis of human pre-adipocyte fibroblasts in adipogenic medium (Thy1 siRNA, SU6656). The class given is cell-based. The protocol:
3T3-L1 cells or primary fibroblasts were cultured to confluence before addition of the adipogenic medium. Cells were treated with an adipogenic medium containing 0.5 mM 3-isobutyl-1-methylxanthine, 0.25 μM dexamethasone, and 1 μg/ml insulin (all three from Sigma Aldrich, St. Louis, Mo.), 2 μM rosiglitazone (Cayman) for two days. After two days medium was replaced with dexamethasone, insulin and rosiglitazone for another 5-8 days. Media was replaced every 2 days through the duration of the experiment. After differentiation cells were analyzed for lipid accumulation and adipogenesis by Oil-red-O (Sigma Aldrich, St. Louis, Mo.) staining and AdipoRed (Cayman) staining as described previously. Lehmann et al., “Novel Anti-adipogenic Activity Produced by Human Fibroblasts,” Am J Physiol Cell Physiol 299(3):C672-81 (2010), which is hereby incorporated by reference in its entirety.
5-8×10^4 or 1×10^5 cells were seeded into 24 well or 6 well cell culture plates (Corning) and subsequently were transiently transfected with 50-200 nM of siRNA (Ambion) using Lipofectamine 2000 (Invitrogen) as the transfection reagent and following the manufacture's protocol. The cells were incubated with siRNA specific for Thy1 specific or a corresponding non-specific control siRNA for 3-4 days before the cells were subjected to adipogenic differentiation experiments as described above. At the start of the adipogenic differentiation experiment, the cells were again transiently transfected with 100 nM Thy1-specific or control siRNA.
Thy1 specific or control siRNA was introduced into human pre-adipocyte fibroblasts using Lipofectamine 2000. Fibroblasts were then treated with an adipogenic medium and adipogenesis was measured by visual inspection of lipid droplets, FABP4 expression and lipid accumulation. Total Thy1 protein expression and Thy1 surface expression were analyzed by western blot and flow cytometry, respectively. […] Cell images were captured to show the presence of lipid droplets in fibroblasts treated with adipogenic medium, and are shown in FIG. 12B. […]

The subject of experiment [2] is Thy1. The experiment is described as follows: Thy1 expression in hMSCs treated with obesogens (qPCR, flow cytometry). The class given is cell-based, human. Here is the method:
In particular, hMSCs were induced to adipocytes with a rosiglitazone cocktail (adipogenic) or cocktail containing the putative obesogens BPA (1 μM), TBBPA (5 μM), or TBT (100 nM). […] The obesogen doses selected are based on literature and represent concentrations proposed to be found in human tissues. Roos et al., “Circulating Levels of Persistent Organic Pollutants in Relation to Visceral and Subcutaneous Adipose Tissue by Abdominal MRI,” Obesity (Silver Spring) (2012) and Antizar-Ladislao, B, “Environmental Levels, Toxicity and Human Exposure to Tributyltin (TBT)-Contaminated Marine Environment. A Review,” Environ Int 34(2):292-308 (2008), each of which is hereby incorporated by reference in its entirety. As noted above, the cells were cultured in adipogenic medium containing rosiglitazone, a PPARγ ligand that promotes adipogenesis and obesity, and the noted putative obesogens.
qPCR analysis of the mRNA levels of Thy1 and the adipogenic marker FABP4 was conducted. […] The same samples as in FIG. 4A were used to measure Thy1 mRNA levels by qPCR. […] Thy1 and FABP4 levels were normalized to TBP mRNA levels (control gene).
hMSCs were also treated with vehicle (DMSO), 20 uM TBBPA, or 10 uM rosiglitazone for 72 hrs, harvested and stained with a fluorescent anti-Thy1 antibody for analysis of Thy1 by flow cytometry.

For experiment [3], the system named is Thy1. The experiment is described as follows: Thy1 expression in mouse MSCs cultured with obesogens (flow cytometry, western blotting). The experiment is classed as cell-based. As to conditions: 96 hrs; for Thy1, western blotting: concentrations in figure. The protocol: Mouse MSCs were cultured with obesogens for 96 hrs, harvested, and analyzed for Thy1 expression by flow cytometry or western blotting.

For the next experiment, the system named is Erk1/2. The experiment is described as follows: Western blot for phospho-Erk1/2 in 3T3-L1 cells. The experiment is classed as cell-based, mouse. As to conditions: Thy1 expressed in 3T3-L1 cells. The protocol: 3T3-L1 cells infected with a control or Thy1-expressing lentivirus (LV) were treated with 10 nM insulin-like growth factor (IGF)-1 for 0, 5, or 10 minutes. Cells were treated as described, then whole cell lysates were harvested and analyzed by western blot for phospho-Erk1/2 and GAPDH expression (FIG. 18A). Western blot images were analyzed by densitometry and phospho-Erk1/2 levels were normalized to GAPDH to adjust for total protein variations (FIG. 18B).
PPARγ phosphorylation at serine 82 (S82) inhibits ligand binding and severely reduces its ability to promote adipogenesis. […] To investigate if Thy1 regulates the Erk pathway, Thy1 was expressed in 3T3-L1 cells and the activity of Erk1/2 (which corresponds to phospho-Erk) was monitored by western blotting (see FIGS. 18A and 18B). […]

The next experiment has as its system PPARγ. The experiment in a line: Western blot for PPARγ protein in 3T3-L1 cells. As to conditions: expression of Thy1 in 3T3-L1 preadipocyte fibroblasts. The experiment is classed as cell-based, mouse. An excerpt: Orbital fibroblasts from two individual human donors were separated into Thy1^− and Thy1+ subsets. Cells were harvested and analyzed by western blotting for PPARγ and actin (loading control). […] In addition, 3T3-L1 cells were transduced with control or human Thy1− encoding lentiviral (Lv) particles.
To test how Thy1 affects PPARγ, it was first considered whether Thy1 would down-regulate the expression of PPARγ protein. However, two different strains of human TED orbital fibroblasts, sorted into Thy1+ or Thy1^− subsets, expressed similar levels of PPARγ (FIG. 15A). […] Thus, other ways that Thy1 could influence the function of PPARγ were considered, as described below.

The next experiment has as its system Fyn. The experiment in a line: Western blot for phospho-STAT5 (Fyn mediated phosphorylation). The class given is cell-based, human. As to conditions: Thy1 expression.
The next experiment has as its system human stem cells. The experiment is described as follows: Adipogenesis of human stem cells / preadipocytes given a proadipogenic cocktail. The experiment is classed as cell-based. An excerpt:
Thy1 (or Thy-1, also termed CD90) is an N-glycosylated, glycophosphatidylinositol (GPI)-anchored membrane protein that was originally identified as a surface marker on mouse T cells and thymocytes. Thy1 is a surface marker of unknown function that is expressed on some stem cells and some fibroblasts. While Thy1 was discovered more than 35 years ago, its molecular function remains a mystery. The inventors of the present application have discovered that Thy1 is more than a surface marker; rather, it can control the fate of cells by preventing adipogenesis. […] Similarly, deliberate genetic over-expression of Thy1 has the same effect, preventing cells from becoming adipocytes.

Experiment [4] in a line: Diet induced obesity in mice on a high fat diet, soluble Thy1 injected. The experiment is classed as in vivo, mouse. As to conditions: high fat diet (60% kcals from fat), minimum of 8 weeks, 0.2 or 0.4 mg/kg intravenous or subcutaneous. An excerpt: Milligram quantities of soluble Thy1 will be injected into mice receiving a high fat (60% kcals from fat) diet.
Mice fed a high fat diet and treated as in Table 2 will be weighed weekly for the duration of the experiment (minimum of 8 weeks). Following the study, mice will be sacked for fat depot quantification, histologic analysis and fat tissue will be analyzed by western blot for the adipogenic markers FABP4, C/EBPα, Fyn, and phospho-Fyn. Serum samples will also be acquired for analysis of Thy1, adiponectin and glucose levels.

Where [5] appears, read: induced to differentiate into adipocytes.
The mark [6] stands for this setting: human and mouse mesenchymal stem cells.

As to `CN(C)S(=O)(=O)c1ccc2c(c1)/C(=C/c1cc3c([nH]1)CCCC3)C(=O)N2` [SU6656], the “adipogenic effect of Thy1 siRNA (FABP4 mRNA, lipid accumulation)” value in experiment [1] (Thy1 siRNA followed by adipocyte induction) is on record as “ablated”. In experiment [1] (setting [5]), the “FABP4 protein expression, % of control, western blot” value was 30% and the “lipid accumulation, % of control” value came out at 55%.
Take `CC(C)(c1cc(Br)c(O)c(Br)c1)c1cc(Br)c(O)c(Br)c1` [TBBPA, tetrabromobisphenol-A]: the values for the Thy1 expression result in the experiment with Thy1 [2] (MSCs treated with obesogens) and in the experiment on Thy1 [2] (setting [6]) were “reduced” and “dramatically reduced”, respectively. In addition, in the experiment on Thy1 [2] (hMSCs, 20 uM, 72 hrs, vs vehicle (DMSO)), the “surface expression of Thy1, flow cytometry” value was “decreased”. The “Thy1 surface expression, Mean Fluorescent Intensity” value in the experiment with Thy1 [3] (5 μM) is listed as “dramatic reduction”. Also, the “Thy1, western blotting” value in the experiment with Thy1 [3] was “reduction”.
Take `CCC[CH2][Sn]([CH2]CCC)[CH2]CCC` [TBT, tributlytin]: the Thy1 expression entry is recorded as “reduced” in the experiment on Thy1 [2] (MSCs treated with obesogens) and “dramatically reduced” in the experiment with Thy1 [2] (setting [6]). In addition, in the experiment with Thy1 [3], the “Thy1, western blotting” value is “reduction”.
For the compound “Thy1: N-glycosylated, GPI-anchored membrane protein; human Thy1 SEQ ID NO:1; soluble form lacks the GPI anchor”, the “increase of Erk1/2 phosphorylation compared to control 3T3-L1 cells” value with Erk1/2 is “greater than 3 fold”. Further, the PPARγ protein levels entry with PPARγ is “did not alter”. The “phospho-STAT5 levels, western blotting” value in the experiment on Fyn is listed as “reduces”. For the same compound, the “human stem cell adipogenesis” value with human stem cells is “blunts”. In addition, the becoming fat cells entry in the experiment on human stem cells (human and mouse preadipocytes and primary human stem cells, proadipogenic cocktail containing a PPARγ ligand) is recorded as “prevent”. Moreover, in experiment [4], the fat accumulation result was “significantly less fat accumulation” and the weight gain entry was “significantly less weight”.

The record behind these values is patent US9694050B2, “THY1 (CD90) as a novel therapy to control adipose tissue accumulation” (University of Rochester, priority 2012, dated 2017).
